Source: PMC10176470, “Engaging a Non-catalytic Cysteine Residue Drives Potent and Selective Inhibition of Caspase-6” (Journal of the American Chemical Society, 2023)

Experiments:
[1] = biological target: T1, C6 small subunit (Homo sapiens, UniProt P55212); assay: Disulfide tethering assay (% labeling by LC/MS), small subunit; assay type: binding
T1 construct: 194-293-Leu-Glu-His6 (SS) from caspase-6 cDNA (Origene); Leu-Glu-His6 (C); made in house; host or cells: E. coli Rosetta 2 pLysS DE3

[2] = biological target: T2, C6 large subunit (Homo sapiens, UniProt P55212); assay: Disulfide tethering assay (% labeling by LC/MS), large subunit; assay type: binding
T2 construct: Residues 30-179 (LS); made in house; host or cells: E. coli Rosetta 2 pLysS DE3
T2 sequence (P55212 30-179): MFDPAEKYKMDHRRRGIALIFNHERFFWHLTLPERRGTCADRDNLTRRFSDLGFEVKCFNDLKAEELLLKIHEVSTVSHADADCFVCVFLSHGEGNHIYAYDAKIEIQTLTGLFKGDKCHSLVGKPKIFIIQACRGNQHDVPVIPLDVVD
T2 sequence (P55212 194-293): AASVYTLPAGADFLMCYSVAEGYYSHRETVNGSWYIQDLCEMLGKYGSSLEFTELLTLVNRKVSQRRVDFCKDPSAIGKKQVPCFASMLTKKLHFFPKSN

[3] = biological target: T3, caspase-3 (C3) (Homo sapiens, UniProt P42574); assay: Caspase-3 biochemical activity assay with fluorogenic substrate; settings: read-out: Casp-3 IC50
T3 sequence (P42574 29-175 limits assumed): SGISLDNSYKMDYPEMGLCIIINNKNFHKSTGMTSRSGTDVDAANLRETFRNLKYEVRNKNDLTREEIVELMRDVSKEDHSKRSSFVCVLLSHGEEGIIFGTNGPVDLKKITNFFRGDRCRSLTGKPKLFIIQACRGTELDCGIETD
From the text: Error bars represent the standard deviation of thre replicate measurements. […] Activity measured by the cleavage of aminofluorocoumarin-labeled peptides (see the Supporting Information for sequences). C = caspase.

[4] = system: lamin A cleavage by caspase-6 in SK-N-AS cells; assay: Lamin cleavage assay (in-cell western after staurosporine induction); assay type: cell-based; settings: Homo sapiens, 1 h compound then 10 μM staurosporine
Method: This assay measured lamin A cleavage under staurosporine-induced caspase activation; while staurosporine activates all executioner caspases, lamin A cleavage monitors only the activity of C6. After 1 h of preincubation with the compound and 3 h of incubation with staurosporine, lamin A cleavage was measured by in-cell western.
Inhibition of lamin A cleavage in SK-N-AS cells after staurosporine induction of caspases. Cells were treated with the indicated compound for 1 h before the addition of 10 μM staurosporine for 4 h. Error bars indicate the standard deviation from n = 4 replicate samples.
serves as a useful target-engagement assay in cells. We used the procedure of Mintz, et al, with the following modifications: SK-N-AS cells were seeded at 10,000 cells/well in black clear bottom 384-
well plates coated with poly-D-lysine and allowed to adhere overnight. Wells were treated with
varying doses of casapase-6 inhibitor, from 5 µM – 0.1 nM in 2-fold dilutions. After one hour, cells
were treated with 10 µM staurosporine to induce apoptosis and activation of multiple caspases. 3
hours after staurosporine addition, cells were fixed and permeabilized before in-cell westerns were
performed, as described.9

T1 sequence (P55212 194-293): as the sequence (P55212 194-293) above
T1 sequence (P55212 30-179): as the sequence (P55212 30-179) above

With `O=C(NCCS)[C@H]1CCCN(C(=O)Cc2ccc(OC(F)(F)F)cc2)C1` [compound 1] the “C6 % labeling (MS) small subunit” value [1] was 76% and the “C6 % labeling (MS) large subunit” value [2] was 2%.

With `C=CS(=O)(=O)N1CCC[C@@H](C(=O)Nc2ccc(OC(F)(F)F)cc2)C1` [2a] the IC50 [3] was over 500 µM and the IC50 [4] was 14.2 ± 2.4 µM.

In the case of `C=CS(=O)(=O)N1C[C@H](C(=O)Nc2ccc(OC(F)(F)F)cc2)C[C@H](c2ccccc2)C1` (racemic) [(±)-3-c], the IC50 [3] is reported as over 500 µM.

`C=CS(=O)(=O)N1C[C@H](C(=O)Nc2ccc(OC(F)(F)F)cc2)C[C@@H](c2ccccc2)C1` (racemic) [(±)-3-t] showed an IC50 [3] of over 500 µM.
